Measured values taken from a melting point compilation (Tetko et al.; mined from patent text by program, amines drawn as free bases though some values may be those of a salt).

Point of comparison: Nc1nc2ccc(NC(=O)C(=O)N3CCC(Cc4ccccc4)CC3)cc2s1, melting point 203 °C. Against it:
- CC(C)OC(=O)NS(=O)(=O)Cl — lower, 66 °C
- CC(C)(C)OC(=O)N1[C@@H](Cc2cccc(C3CCC3)c2)C(=O)O[C@H](c2ccccc2)[C@@H]1c1ccccc1 — lower, 145 to 147 °C
- COCCNC(=O)c1ccc(NS(=O)(=O)c2ccc(F)cc2)cn1 — lower, 154 °C
- NC(N)=NC(=O)Cc1c(-c2ccccc2)csc1-c1ccccc1 — higher, 204 to 206 °C
- CCC(=O)c1cc(Cl)c(C)cc1OC — lower, 79 °C
- O=C(NCCOCCO[N+](=O)[O-])c1cncs1 — lower, 63 to 65 °C
- CC(C)OC(=O)NCNCN=O — lower, 66 to 67 °C
- C=C(c1ccc2cc(OC)ccc2c1)C(O)C(=O)OC (centres undefined) — lower, 90.6 to 92.5 °C
- COC(=O)c1ccc(C(O)C#Cc2cc(-c3cccs3)c(OC)cc2OC)cc1 (centres undefined) — lower, 128 to 130 °C
- O=C(Nc1ccc(Br)cc1-c1noc(=O)[nH]1)c1cccc(S(=O)(=O)N2CCOCC2)c1 — higher, 220 to 223 °C
- NS(=O)(=O)c1c(Cl)cccc1Cn1cncn1 — lower, 175 to 178 °C
- CCN(CC)C(=O)c1ccc(C)c(-c2nc(S(C)(=O)=O)nc3c2CNC(=O)N3c2c(F)cccc2F)c1 — lower, 132 to 135 °C
- Cc1c(-c2ccc3c(c2)NC(=O)C(C)O3)nc2ccccn12 (centres undefined) — higher, 216 to 217 °C
- COc1ccc(C2CCCC(=O)N2c2ccccc2)cc1 (centres undefined) — lower, 77 to 78 °C
- CSc1nnc(COc2cc(C(C)(C)C)c(O)c(C(C)(C)C)c2)s1 — lower, 128 to 130 °C
- COc1ccc(Cl)cc1C(=O)NCCc1ccc(C(C)=CCC(=O)O)cc1 — lower, 180 to 183 °C
- CSc1nc(O)nc(-c2ccncc2)n1 — higher, 270 to 272 °C
- CCC(=N)c1c(O)cc(-c2ccccc2)n(C)c1=O — lower, 145 to 147 °C
- Cc1nc(N2CCN(Cc3ccccc3)CC2)ncc1C(=O)O — lower, 192 °C
- CC1CCN(C(=O)c2ccc([C@H]3CC[C@H](NC[C@H](O)COc4ccc(O)c(NS(C)(=O)=O)c4)CC3)cc2)CC1 — lower, 90 to 100 °C
- CN(C)CCCNc1ncc2c(n1)-c1ccccc1C(c1cccc(Br)c1)C2 (centres undefined) — lower, 120 to 122 °C
- Cc1cc(SC#N)c(C)c(C)c1O — lower, 100 °C
- COc1cccc(N(CCN2CCC(C(=O)c3ccc(F)cc3)CC2)C(=O)c2ccc([N+](=O)[O-])cc2)c1 — lower, 133 to 135 °C
- COCc1cc(C(O)CNCCCCCOCCc2ccc(F)cc2)ccc1O (centres undefined) — lower, 86 to 87 °C
- COCCN(C)CC(=O)N(C)Cc1ccc(C(=O)Nc2nc3c(OC)ccc(N4CCOCC4)c3s2)cc1 — lower, 171 to 173 °C
- CC(C)(C)c1cc(CCc2ccccc2NC(=O)NC2CCCc3ccccc32)cc(C(C)(C)C)c1O (centres undefined) — lower, 168 to 169 °C
- Cc1nc2c(c3c1[nH]c1cccc(F)c13)C(=O)CC(C(C)C)C2 (centres undefined) — higher, 213 to 215 °C
- CCOC(=O)c1oc2ccc([N+](=O)[O-])cc2c1OC(C)C — lower, 122 °C
- CCN(C=Nc1ccc2c(c1)nc(N(C)C)c1cc(N=CN(CC)CC)ccc12)CC — lower, 124 to 126 °C
- CCCCCCN(C)c1ccc(C=C2SC(=S)N(Cc3nnn[nH]3)C2=O)cc1 — lower, 198 to 200 °C
- Oc1ccc(-c2nnc(-c3ccc(O)cc3)o2)cc1 — higher, 338 °C
- CC(C)(C)OC(=O)CN1C(=O)[C@@H](NC(=O)OC(C)(C)C)CC(=O)c2ccccc21 — lower, 75 to 77 °C
- CC(C)(C)C(=O)C(Cc1ccc(Cl)cc1)n1cncn1 (centres undefined) — lower, 124 °C
- O=C(Nc1cccc(C(F)(F)F)c1)c1cccc2cc(Oc3cc(CCl)ncn3)ccc12 — lower, 178 to 181 °C
- CCOC(=O)CN(SN(C)C(=O)Oc1cccc2c1OC(C)(C)C2)C(=O)CC — lower, 108 to 109 °C
- Cn1cc(-c2ccccc2)c(=O)c(-c2cccc(Br)c2)c1 — lower, 172 °C
- O=C(CC(=O)C(F)(F)F)c1nc2ccc(F)cc2s1 — lower, 175 to 178 °C
- CCOc1cc2c(cc1OCC)-c1c(OCC)c(OCC)cc3c1C(C2)N(C)CC3O (centres undefined) — lower, 140 to 142 °C
- O=C(NC[C@H]1CN(c2cc(F)c(N3CCC(n4ncnn4)CC3)c(F)c2)C(=O)O1)C(Cl)Cl — lower, 160 to 162 °C
- Cc1ccc(S(=O)(=O)Oc2ccc(F)cc2Cl)cc1 — lower, 92 to 94 °C
- N#CCC(=O)N(N)c1c(Cl)cc(Cl)cc1Cl — lower, 166 to 168 °C
- O=[N+]([O-])c1ccc(Oc2ccc(C(F)(F)F)cc2Cl)cc1NCP(=O)(O)O — lower, 148 to 150 °C
- Cn1c(COc2ccc(CC3SC(=O)NC3=O)cc2)nc2ccc(OCc3ccccc3)nc21 (centres undefined) — higher, 210 to 211 °C
- COc1cc(Nc2c(C#N)cnc3cc(-c4ccc(CN(C)C)cc4)ccc23)c(Cl)cc1Cl — lower, 187 to 189 °C
- CCON=C(C(C)=NO)c1ccc(OC(C)c2ccc(Cl)cc2)cc1 (centres undefined) — lower, 132 to 134 °C
- C[C@@H]1CN(CCCn2c3ccccc3c3ccccc32)C[C@H](C)N1 — lower, 107 to 109 °C
- COCC(=O)OC1(C(=O)COC(C)=O)CCC2C3CC(C)C4=CC(=O)C=CC4(C)C3C(O)CC21C (centres undefined) — lower, 150 to 152 °C
- FN(F)CC1(CN(F)F)COC1 — lower, 43.5 to 44.5 °C
